Entries after “also recorded” stand apart in the source; their conditions may differ.
What was measured:
NUDHL1 model of DLBCL = assay: Xenograft tumor growth; type: in vivo, NOD SCID mice; conditions: Voruciclib 200 mpk, Venetoclax 50 mpk
Description: Immune deficient NOD SCID mice were implanted with the NUDHL1 model of DLBCL. The xenografted tumors were allowed to grow in the NOD SCID host until they reached 200 mm^3, at which point the xenografted animals were randomized into 4 study groups: 1. Vehicle control; 2. […] Venetoclax at 50 mpk; and 4. […] Venetoclax was dosed by oral gavage on days 1 and 4 of each weekly cycle. Drug effects were assessed via tumor volume measurements twice weekly by a technician blinded to the treatment of each subject in the study. N=5-6 animals per treatment arm.

RIvA DLBCL model = assay: Western blot of treated cells; type: cell-based; conditions: increasing concentration of voruciclib, single agent
Description: Cell lines shown in Table 1, adherent or suspension, were treated in 6-well dishes or T10 flasks respectively, seeded at one million per ml density prior to treatment in total volumes of 3-10 ml. All agents used for in vitro cell treatments were formulated in water/DMSO to achieve required concentrations (as stated in respective figure labels/legends) with DMSO concentrations not exceeding 0.01%. Drug sources are indicated in table under ‘CIVO microinjection studies’. Cells were harvested at experimental time points: 2, 6, or 24 hours post treatment as indicated in respective figures, first by washing cells twice in ice-cold PBS in 15 ml falcon tubes, centrifugation at 1000 rpm for 5 mins followed by lysis of the respective cell pellets as described in section below. Note: Drug resistant NUDHL1 Dox 1000 nM and Toledo Dox 1000 nM cell lines were generated at Presage by culturing parental lines in media with stepwise increments in Doxorubicin concentration over several passages. […]
Protein lysates were prepared by adding ice-cold 1×RIPA Buffer (from 10×, Millipore) with 1×-3× Halt protease and phosphatase inhibitor cocktail (100×, Pierce) to cell pellets, followed by pulse sonication (˜3-5 secs) three times. […] Protein samples were quantified using Bradford assay (Biorad) at 1:10 or higher dilutions using appropriate blank controls with 1×RIPA. […]

[1] = tested on: DLBCL xenograft tumors (OCILY10); assay: MCL1 expression in xenograft tumors after oral dosing; type: in vivo, mice; conditions: 100 mpk, oral gavage daily for 5 days, 4 h post final dose
Description: Protein lysates were prepared by adding ice-cold 1×RIPA Buffer (from 10×, Millipore) with 1×-3× Halt protease and phosphatase inhibitor cocktail (100×, Pierce) to cell pellets, followed by pulse sonication (˜3-5 secs) three times. Lysates were cleared by centrifugation at 14K rpm for 15-20 mins and the supernatant (lysate) was collected for further analysis. To prepare lysates from cryopreserved xenograft tumor tissue, tissue was first homogenized using a hand-held tissue homogenizer (Cole Palmer) in above lysis buffer followed by pulse sonication and centrifugation as described above. Above steps were carried out under ice cold conditions. Protein samples were quantified using Bradford assay (Biorad) at 1:10 or higher dilutions using appropriate blank controls with 1×RIPA. 20-25 micrograms of protein from each sample were subject to SDS-PAGE using BOLT 4-12% Bis-Tris gels (Thermofisher) and transferred to either 0.45 or 0.2 micron pore size membranes (as applicable based on protein molecular size), and either nitrocellulose (NC) or pvdf (Thermofisher) using manufacturer's protocol, blocked for one hour in 5% milk at room temperature, probed with primary antibodies (Table 2) at 4 deg C. overnight and corresponding HRP-conjugated secondary antibodies (Jackson Immunoresearch, 1:10,000-1:20,000 dilutions) for 1 hour at room temperature. […]

MV-4-11 = assay: Western blot of treated AML cells; type: cell-based
Description: (§1) Cell lines shown in Table 1, adherent or suspension, were treated in 6-well dishes or T10 flasks respectively, seeded at one million per ml density prior to treatment in total volumes of 3-10 ml. All agents used for in vitro cell treatments were formulated in water/DMSO to achieve required concentrations (as stated in respective figure labels/legends) with DMSO concentrations not exceeding 0.01%. Drug sources are indicated in table under ‘CIVO microinjection studies’. Cells were harvested at experimental time points: 2, 6, or 24 hours post treatment as indicated in respective figures, first by washing cells twice in ice-cold PBS in 15 ml falcon tubes, centrifugation at 1000 rpm for 5 mins followed by lysis of the respective cell pellets as described in section below. Note: Drug resistant NUDHL1 Dox 1000 nM and Toledo Dox 1000 nM cell lines were generated at Presage by culturing parental lines in media with stepwise increments in Doxorubicin concentration over several passages. These cells were used to generate xenografts when resistance to 1 uM Dox was achieved.
(§2) Protein lysates were prepared by adding ice-cold 1×RIPA Buffer (from 10×, Millipore) with 1×-3× Halt protease and phosphatase inhibitor cocktail (100×, Pierce) to cell pellets, followed by pulse sonication (˜3-5 secs) three times. Lysates were cleared by centrifugation at 14K rpm for 15-20 mins and the supernatant (lysate) was collected for further analysis. To prepare lysates from cryopreserved xenograft tumor tissue, tissue was first homogenized using a hand-held tissue homogenizer (Cole Palmer) in above lysis buffer followed by pulse sonication and centrifugation as described above. Above steps were carried out under ice cold conditions. Protein samples were quantified using Bradford assay (Biorad) at 1:10 or higher dilutions using appropriate blank controls with 1×RIPA. 20-25 micrograms of protein from each sample were subject to SDS-PAGE using BOLT 4-12% Bis-Tris gels (Thermofisher) and transferred to either 0.45 or 0.2 micron pore size membranes (as applicable based on protein molecular size), and either nitrocellulose (NC) or pvdf (Thermofisher) using manufacturer's protocol, blocked for one hour in 5% milk at room temperature, probed with primary antibodies (Table 2) at 4 deg C. overnight and corresponding HRP-conjugated secondary antibodies (Jackson Immunoresearch, 1:10,000-1:20,000 dilutions) for 1 hour at room temperature. Three PBS/0.01% Tween-20 washes (5-10 mins each) were carried out after each antibody incubation. ECL chemiluminescent substrate (Pierce or GE) and autoradiographic film (Thermofisher) was used for detection of protein signals.
(§3) At the given time points, cells were lysed and subjected to western blot analysis with antibodies that specifically recognize phosphorylated RNA pol II (pSer2), MCL-1, cleaved PARP, and Beta-actin. […] Cleaved PARP (cPARP) may be used as a biomarker of apoptosis.
(§4) At the given time points, cells were lysed and subjected to western blot analysis with antibodies that specifically recognize phosphorylated RNA pol II (pSer2), MCL-1, cleaved PARP, and Beta-actin. […] Venetoclax is observed to induce MCL-1 upregulation in all three cell lines.

SKM-1 = assay: Western blot of treated AML cells; type: cell-based
Description: as §1, §2, §3, §4

OCI-AML-3 = assay: Western blot of treated AML cells; type: cell-based
Description: as §1, §2, §3, §4

[2] = tested on: HCC1187 triple negative breast cancer cells; assay: Western blot of treated cells; type: cell-based
Description: as §1
as §2, with “Protein samples were quantified using Bradford assay (Biorad) at 1:10 or higher dilutions using appropriate blank controls with 1×RIPA.” left out
1 ug of mRNA from each condition was used to generate cDNA using the High Capacity cDNA Reverse Transcription Kit (Applied Biosystems) and manufacturer's protocol. 100 ng cDNA was used to conduct a PCR assay to amplify XBP1 u or splice forms (Thermofisher PCR Supermix)—94 deg C. for 2 mins, (94 deg C. for 15 secs, 55 deg C. for 30 secs, 72 deg C. for 1 min)×30 cycles, 72 deg C. for 7 mins, hold at 4 deg C.

[3] = voruciclib 1.5 and 5.0 micromolar, 2, 6, or 24 h
[4] = voruciclib 1.5 micromolar, venetoclax 100 nM, 24 h
[5] = Western blot, voruciclib and bortezomib in combination

CN1CC[C@@H](c2c(O)cc(O)c3c(=O)cc(-c4ccc(C(F)(F)F)cc4Cl)oc23)[C@@H]1CO (relative stereo) [voruciclib, (+)-trans-2-(2-Chloro-4-trifluoromethylphenyl)-5,7-dihydroxy-8-(2-hydroxymethyl-1-methylpyrrolidin-3-yl)-chromen-4-one]
tumor size (images) (NUDHL1 model of DLBCL): smaller
MCL-1 (RIvA DLBCL model): suppresses
apoptosis (cPARP) (RIvA DLBCL model): increases as the concentration of voruciclib increases
MCL1 expression in xenograft tumors [1]: suppressed
MCL-1 (MV-4-11; [3]): suppresses
apoptosis (cleaved PARP) (MV-4-11; [3]): induces apoptosis
MCL-1 (MV-4-11; [4]): dampens
apoptosis (PARP) (MV-4-11; [4]): neither agent alone induces apoptosis
MCL-1 (SKM-1; [3]): suppresses
apoptosis (cleaved PARP) (SKM-1; [3]): induces apoptosis
MCL-1 (SKM-1; [4]): dampens
apoptosis (PARP) (SKM-1; [4]): neither agent alone induces apoptosis
MCL-1 (OCI-AML-3; [3]): suppresses
apoptosis (cleaved PARP) (OCI-AML-3; [3]): induces apoptosis
MCL-1 (OCI-AML-3; [4]): dampens
apoptosis (PARP) (OCI-AML-3; [4]): neither agent alone induces apoptosis
MCL-1 protein expression ([2]; Western blot, compared to untreated sample): reduced
bortezomib-induced increase in MCL-1 expression [2, 5]: decreased; also recorded: diminishes
bortezomib-induced upregulation of XIAP [2, 5]: diminishes
XBP1 upregulation ([2]; voruciclib combined with either bortezomib or tunicamycin): diminished
